Experimental data as given in patent US20240409557A1, “5,6-FUSED AND 6,6-FUSED BICYCLIC ALCOHOLS AND ETHERS AND COMPOSITIONS FOR USE AS 15-PROSTAGLANDIN DEHYDROGENASE MODULATORS” (AMGEN INC., priority 2023, published 2024).

biological target: T1, human recombinant 15-PGDH (Homo sapiens, UniProt P15428); experiment: Recombinant 15-PGDH enzymatic inhibition assay (PGDH-Lumi, NADH signal); type: biochemical; conditions: recombinant 15-PGDH; 15 min pre-incubation, 60 min reaction with PGE2 and NAD+, NADH signal
T1 sequence (P15428 1-266): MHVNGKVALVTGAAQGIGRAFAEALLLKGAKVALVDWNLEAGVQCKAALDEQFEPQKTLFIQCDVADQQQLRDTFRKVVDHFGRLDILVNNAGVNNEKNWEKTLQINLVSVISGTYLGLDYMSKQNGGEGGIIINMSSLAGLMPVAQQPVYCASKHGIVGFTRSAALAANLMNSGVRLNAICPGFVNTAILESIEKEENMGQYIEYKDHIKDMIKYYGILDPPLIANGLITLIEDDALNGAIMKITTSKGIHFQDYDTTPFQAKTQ
Protocol: These assays measured 15-PGDH enzymatic activity by quantifying the amount of NADH produced during a 60-minute reaction initiated by the addition of PGE2 and NAD+. Under the conditions of these experiments, the increase of NADH signal upon oxidation of PGE2 and reduction of NAD+ was linearly proportional to 15-PGDH enzymatic activity. The recombinant human, mouse, rat and dog 15-PGDH enzymatic assays were performed in a 25 μL volume of reaction buffer containing 50 mM Tris, pH 7.5, 0.01% Tween-20 and […] DTT in a 384-well microtiter plate. In concentration-response experiments with tested compounds, 22 concentrations from 2-fold serial dilutions in DMSO were pre-incubated with 15-PGDH for 15 minutes at room temperature. Then, PGE2 and β-NAD+ were added to initiate the 15-PGDH reaction. After 60 minutes at room temperature, the reaction was quenched and NADH signal was measured using a microtiter plate reader.
The following data (Table 27-1) provides the IC50 in μM of each compound for inhibiting enzymatic activity of the recombinant 15-PGDH in the assay described above.

Compound	IC50 [nM]
CC(O)c1cc2c(-c3cnc4nn(C)cc4c3)cc(-c3cnc4nn(C)cc4c3)nc2s1 (centres unmarked) [Compound B10, 1-(4,6-bis(2-methyl-2H-pyrazolo[3,4-b]pyridin-5-yl)thieno[2,3-b]pyridin-2-yl)ethanol]	139
CC(O)c1cc2c(-c3cnc4nn(C)cc4c3)cc(C3CC3)nc2s1 (centres unmarked) [Compound B12, 1-(6-cyclopropyl-4-(2-methyl-2H-pyrazolo[3,4-b]pyridin-5-yl)thieno[2,3-b]pyridin-2-yl)ethanol]	57.8
CN1CCC(C(O)c2cc3ccc(-c4cnc5nn(C)cc5c4)nc3s2)CC1 (centres unmarked) [Compound B33, (1-methyl-4-piperidinyl)(6-(2-methyl-2H-pyrazolo[3,4-b]pyridin-5-yl)thieno[2,3-b]pyridin-2-yl)methanol]	27
Cn1ncc2cc(-c3ccc4cc(C(O)C5CCOCC5)sc4n3)ccc21 (centres unmarked) [Compound B34, (6-(1-methyl-1H-indazol-5-yl)thieno[2,3-b]pyridin-2-yl)(tetrahydro-2H-pyran-4-yl)methanol]	20.7
CN1CC(C(O)c2cc3ccc(-c4cnc5nn(C)cc5c4)nc3s2)C1 (centres unmarked) [Compound B42, (1-methyl-3-azetidinyl)(6-(2-methyl-2H-pyrazolo[3,4-b]pyridin-5-yl)thieno[2,3-b]pyridin-2-yl)methanol]	12.8
CN1CCC1C(O)c1cc2ccc(-c3cnc4nn(C)cc4c3)nc2s1 (centres unmarked) [Compound B45]	8.64
CCCC(O)c1cc2ccc(-c3cnc4nn(C)cc4c3)cc2s1 (centres unmarked) [Compound B54, 1-(6-(2-methyl-2H-pyrazolo[3,4-b]pyridin-5-yl)-1-benzothiophen-2-yl)-1-butanol]	9.35
COCCC(O)c1cc2ccc(-c3cnc4nn(C)cc4c3)cc2s1 (centres unmarked) [Compound B59, 3-methoxy-1-(6-(2-methyl-2H-pyrazolo[3,4-b]pyridin-5-yl)-1-benzothiophen-2-yl)-1-propanol]	8.41
CN1CCC(C(O)c2cc3ccc(-c4cnc5nn(C)cc5c4)nc3s2)C1 (centres unmarked) [Compound B62, (6-(2-methyl-2H-pyrazolo[3,4-b]pyridin-5-yl)thieno[2,3-b]pyridin-2-yl)(1-methyl-3-pyrrolidinyl)methanol]	20.7
CN1CCCC(C(O)c2cc3ccc(-c4cnc5nn(C)cc5c4)nc3s2)C1 (centres unmarked) [Compound B63]	15
Nc1c(C(O)C2CC(F)(F)C2)sc2nc(-c3cncnc3)ccc12 (centres unmarked) [Compound B71, (3-amino-6-(5-pyrimidinyl)thieno[2,3-b]pyridin-2-yl)(3,3-difluorocyclobutyl)methanol]	0.749
Cn1nnc2cc(-c3ccc4cc([C@@H](O)C5CC(F)(F)C5)sc4n3)cnc21 [Compound B82S, (S)-(3,3-difluorocyclobutyl)(6-(3-methyl-3H-[1,2,3]triazolo[4,5-b]pyridin-6-yl)thieno[2,3-b]pyridin-2-yl)methanol]	1.65
Cn1cc2cc(-c3cnc4sc([C@H](O)C5CC(F)(F)C5)cc4n3)cnc2n1 [Compound B96R, (R)-(3,3-difluorocyclobutyl)(2-(2-methyl-2H-pyrazolo[3,4-b]pyridin-5-yl)thieno[2,3-b]pyrazin-6-yl)methanol]	0.44
Cn1cc2cc(-c3cnc4sc([C@@H](O)C5CC(F)(F)C5)cc4n3)cnc2n1 [Compound B96S, (S)-(3,3-difluorocyclobutyl)(2-(2-methyl-2H-pyrazolo[3,4-b]pyridin-5-yl)thieno[2,3-b]pyrazin-6-yl)methanol]	3.1
COCCC(C)(O)c1cc2ccc(-c3cnc4nn(C)cc4c3)nc2s1 (centres unmarked) [Compound C1, 4-methoxy-2-(6-(2-methyl-2H-pyrazolo[3,4-b]pyridin-5-yl)thieno[2,3-b]pyridin-2-yl)-2-butanol]	43.8
Cn1cc2cc(-c3ccc4cc(C(C)(O)C(F)(F)F)sc4n3)cnc2n1 (centres unmarked) [Compound C2, 1,1,1-trifluoro-2-(6-(2-methyl-2H-pyrazolo[3,4-b]pyridin-5-yl)thieno[2,3-b]pyridin-2-yl)-2-propanol]	225
COCCC(O)(c1cc2ccc(-c3cnc4nn(C)cc4c3)nc2s1)C(F)(F)F (centres unmarked) [Compound C3, 1,1,1-trifluoro-4-methoxy-2-(6-(2-methyl-2H-pyrazolo[3,4-b]pyridin-5-yl)thieno[2,3-b]pyridin-2-yl)-2-butanol]	807
CN1CCC(O)(c2cc3ccc(-c4cnc5nn(C)cc5c4)nc3s2)C1 (centres unmarked) [Compound C4, 1-methyl-3-(6-(2-methyl-2H-pyrazolo[3,4-b]pyridin-5-yl)thieno[2,3-b]pyridin-2-yl)-3-pyrrolidinol]	1800

Compound	IC50 [nM]
COCC(C)(O)c1cc2ccc(-c3cnc4nn(C)cc4c3)nc2s1 (centres unmarked) [Compound C6, 1-methoxy-2-(6-(2-methyl-2H-pyrazolo[3,4-b]pyridin-5-yl)thieno[2,3-b]pyridin-2-yl)-2-propanol]	544
CN1CCC(O)(c2cc3ccc(-c4cnc5nn(C)cc5c4)nc3s2)CC1 [Compound C7, 1-methyl-4-(6-(2-methyl-2H-pyrazolo[3,4-b]pyridin-5-yl)thieno[2,3-b]pyridin-2-yl)-4-piperidinol]	2920
Cn1cc2cc(-c3ccc4cc(C5(O)CCS(=O)(=O)CC5)sc4n3)cnc2n1 [Compound C8, 4-(6-(2-methyl-2H-pyrazolo[3,4-b]pyridin-5-yl)thieno[2,3-b]pyridin-2-yl)tetrahydro-2H-thiopyran-4-ol 1,1-dioxide]	67.7
Cn1cc2cc(-c3ccc4cc(C(C)(C)O)sc4n3)cnc2n1 [Compound C9, 2-(6-(2-methyl-2H-pyrazolo[3,4-b]pyridin-5-yl)thieno[2,3-b]pyridin-2-yl)-2-propanol]	419
CCC(C)(O)c1cc2ccc(-c3cnc4nn(C)cc4c3)nc2s1 (centres unmarked) [Compound C10, 2-(6-(2-methyl-2H-pyrazolo[3,4-b]pyridin-5-yl)thieno[2,3-b]pyridin-2-yl)-2-butanol]	195
Cn1cc2cc(-c3ccc4cc(C(C)(O)C5CC5)sc4n3)cnc2n1 (centres unmarked) [Compound C11, 1-cyclopropyl-1-(6-(2-methyl-2H-pyrazolo[3,4-b]pyridin-5-yl)thieno[2,3-b]pyridin-2-yl)ethanol]	101
CN1CC(O)(c2cc3ccc(-c4cnc5nn(C)cc5c4)nc3s2)C1 [Compound C12, 1-methyl-3-(6-(2-methyl-2H-pyrazolo[3,4-b]pyridin-5-yl)thieno[2,3-b]pyridin-2-yl)-3-azetidinol]	7.27
CN1CCCC(O)(c2cc3ccc(-c4cnc5nn(C)cc5c4)nc3s2)C1 (centres unmarked) [Compound C13, 1-methyl-3-(6-(2-methyl-2H-pyrazolo[3,4-b]pyridin-5-yl)thieno[2,3-b]pyridin-2-yl)-3-piperidinol]	761
CCC(O)(c1cc2ccc(-c3cnc4nn(C)cc4c3)nc2s1)C(F)(F)F (centres unmarked) [Compound C14, 1,1,1-trifluoro-2-(6-(2-methyl-2H-pyrazolo[3,4-b]pyridin-5-yl)thieno[2,3-b]pyridin-2-yl)-2-butanol]	555
COCC(O)(c1cc2ccc(-c3cnc4nn(C)cc4c3)nc2s1)C(F)(F)F (centres unmarked) [Compound C16, 1,1,1-trifluoro-3-methoxy-2-(6-(2-methyl-2H-pyrazolo[3,4-b]pyridin-5-yl)thieno[2,3-b]pyridin-2-yl)-2-propanol]	235
Cn1cc2cc(-c3ccc4cc(C(O)(C5CC5)C(F)(F)F)sc4n3)cnc2n1 (centres unmarked) [Compound C17, 1-cyclopropyl-2,2,2-trifluoro-1-(6-(2-methyl-2H-pyrazolo[3,4-b]pyridin-5-yl)thieno[2,3-b]pyridin-2-yl)ethanol]	1260
Cn1cc2cc(-c3ccc4cc(C5(O)COC5)sc4n3)cnc2n1 [Compound C18, 3-(6-(2-methyl-2H-pyrazolo[3,4-b]pyridin-5-yl)thieno[2,3-b]pyridin-2-yl)-3-oxetanol]	12.9
Cn1cc2cc(-c3ccc4cc(C5(O)CCCC5)sc4n3)cnc2n1 [Compound C19, 1-(6-(2-methyl-2H-pyrazolo[3,4-b]pyridin-5-yl)thieno[2,3-b]pyridin-2-yl)cyclopentanol]	40.6
Cn1cc2cc(-c3ccc4cc(C5(O)CCOC5)sc4n3)cnc2n1 (centres unmarked) [Compound C20, 3-(6-(2-methyl-2H-pyrazolo[3,4-b]pyridin-5-yl)thieno[2,3-b]pyridin-2-yl)tetrahydro-3-furanol]	86
Cn1cc2cc(-c3ccc4cc(C5(O)CCOCC5)sc4n3)cnc2n1 [Compound C22, 4-(6-(2-methyl-2H-pyrazolo[3,4-b]pyridin-5-yl)thieno[2,3-b]pyridin-2-yl)tetrahydro-2H-pyran-4-ol]	257
Cn1cc2cc(-c3cc(-c4ccnn4C)c4cc(C(O)(C5CCC5)C(F)(F)F)sc4n3)cnc2n1 (centres unmarked) [Compound C24, 1-cyclobutyl-2,2,2-trifluoro-1-(6-(2-methyl-2H-pyrazolo[3,4-b]pyridin-5-yl)-4-(1-methyl-1H-pyrazol-5-yl)thieno[2,3-b]pyridin-2-yl)ethanol]	230
O=C1NCc2cc(-c3ncc4cc([C@]5(O)C[C@@H](C(F)(F)F)C5)sc4n3)cnc21 [Compound C128C, 3-(6-(cis-1-hydroxy-3-(trifluoromethyl)cyclobutyl)thieno[2,3-d]pyrimidin-2-yl)-5,6-dihydro-7H-pyrrolo[3,4-b]pyridin-7-one]	0.62
